Results on three molecules are retold here after patent US11661422B2, “Tricyclic urea compounds as JAK2 V617F inhibitors” (Incyte Corporation, priority 2020, dated 2023).

Broadly, the IC50 is the concentration that inhibits the measured activity by half.

Each structure is given as a SMILES string. Structures can show the parent of a compound that is named as a salt.

Test [1] deals with catalytic domain (JH1, amino acids 826-1132) of human JAK2 (Homo sapiens (Human), UniProt O60674). The test is described as follows: JAK2 LanthaScreen JH1 Binding Assay. Conditions: JAK2 JH1 1.5 nM, 50 nM fluorescent tracer, 2 hours at 25° C.; read-out: JH1 BIND IC50. Here is the method:
Example A. JAK2 LanthaScreen JH1 Binding Assay
(§1) JAK2 JH1 binding assay utilizes catalytic domain (JH1, amino acids 826-1132) of human JAK2 expressed as N-terminal FLAG-tagged, biotinylated protein in a baculovirus expression system (Carna Biosciences, Product #08-445-20N). The assay was conducted in black 384-well polystyrene plates in a final reaction volume of 20 μL. JAK2 JH1 (1.5 nM) was incubated with compounds (100 nL serially diluted in DMSO) in the presence of 50 nM Fluorescent JAK2-JH1 Tracer and 0.5 nM Streptavidin-Tb cryptate (Cisbio Part #610SATLB) in assay buffer (50 mM Tris, pH=7.5, 10 mM MgCl2, 0.01% Brij-35, 0.1% BSA, 1 mM EGTA, 5% Glycerol and 5 mM DTT). Non-specific binding was accessed in the presence of 2 mM ATP. After incubation for 2 hours at 25° C., LanthaScreen signals were read on a PHERAstar FS plate reader (BMG LABTECH). Data was analyzed with IDBS XLfit and GraphPad Prism 5.0 software using a four parameter dose response curve to determine IC50 for each compound.

Test [2] concerns the target pseudo-kinase domain (JH2, amino-acids 536-812) of human Wild Type JAK2 (Homo sapiens (Human), UniProt O60674, F794H/W659A/W777A). Description: JAK2 LanthaScreen JH2-WT Binding Assay. Conditions: JAK2 JH2-WT 0.145 nM, 50 nM fluorescent tracer, 1 hour at 25° C.; read-out: JH2 BIND WT IC50. Here is the method: Example B. JAK2 LanthaScreen JH2-WT Binding Assay
as §1, with “The” for “JAK2 JH1 binding assay utilizes catalytic domain (JH1, amino acids 826-1132) of human JAK2 expressed as N-terminal FLAG-tagged, biotinylated protein in a baculovirus expression system (Carna Biosciences, Product #08-445-20N). The”, “JH2-WT (0.145” for “JH1 (1.5”, “JAK2-JH2” for “JAK2-JH1”, “Tracer (MedChem Express Catalog #HY-102055)” for “Tracer”, “0.25” for “0.5”, “1 hour” for “2 hours”
(In TR-FRET formats the signal depends on donor and acceptor labels being close together.)

Test [3] deals with pseudo-kinase domain (JH2, amino-acids 536-812) of human V617F mutant JAK2 (Homo sapiens (Human), UniProt O60674, F794H/V617F/W659A/W777A). The test is described as follows: JAK2 LanthaScreen JH2-V617F Binding Assay. As to conditions: JAK2 JH2-V617F 0.26 nM, 50 nM fluorescent tracer, 1 hour at 25° C.; read-out: JH2 BIND V617F IC50. The procedure: The assay was conducted in black 384-well polystyrene plates in a final reaction volume of 20 μL. […] Non-specific binding was accessed in the presence of 2 mM ATP. After incubation for 1 hour at 25° C., LanthaScreen signals were read on a PHERAstar FS plate reader (BMG LABTECH). Data was analyzed with IDBS XLfit and GraphPad Prism 5.0 software using a four parameter dose response curve to determine IC50 for each compound.

Test [4] deals with catalytic domain (JH1, amino acids 808-1132) of human JAK2 (Homo sapiens (Human), UniProt O60674). The test is described as follows: JAK2 HTRF Enzyme Activity Assay. The test is classed as biochemical. Conditions: JAK2 0.015 nM, ATP (30 μM or 1 mM), 60 minutes at 25° C. The procedure:
Example D. JAK2 HTRF Enzyme Activity Assay
JAK2 enzyme activity assays utilize catalytic domain (JH1, amino acids 808-1132) of human JAK2 expressed as N-terminal His-tagged protein in a baculovirus expression system (BPS Bioscience, Catalog #40450). The assays was conducted in black 384-well polystyrene plates in a final reaction volume of 20 μL. JAK2 (0.015 nM) was incubated with compounds (100 nL serially diluted in DMSO) in the presence of ATP (30 μM or 1 mM) and 500 nM Biotin-labeled […] (SEQ ID NO.: 1) peptide (BioSource International, custom synthesis) in assay buffer (50 mM Tris, pH=7.5, 10 mM MgCl2, 0.01% Brij-35, 0.1% BSA, 1 mM EGTA, 5% Glycerol and 5 mM DTT) for 60 minutes at 25° C. The reactions were stopped by the addition of 10 μL of detection buffer (50 mM Tris, pH 7.8, 0.5 mg/mL BSA, 150 mM NaCl), supplemented with EDTA, LANCE Eu-W1024 anti-phosphotyrosine (PY20), (PerkinElmer, Catalog #AD0067) and Streptavidin SureLight APC (PerkinElmer Catalog #CR130-100), for a final concentration of 15 mM, 1.5 nM and 75 nM, respectively. HTRF signals were read after 30 minutes incubation at room temperature on a PHERAstar FS plate reader (BMG LABTECH). Data was analyzed with IDBS XLfit and GraphPad Prism 5.0 software using a four parameter dose response curve to determine IC50 for each compound.

Chain of catalytic domain (JH1, amino acids 826-1132) of human JAK2 (O60674 826-1132): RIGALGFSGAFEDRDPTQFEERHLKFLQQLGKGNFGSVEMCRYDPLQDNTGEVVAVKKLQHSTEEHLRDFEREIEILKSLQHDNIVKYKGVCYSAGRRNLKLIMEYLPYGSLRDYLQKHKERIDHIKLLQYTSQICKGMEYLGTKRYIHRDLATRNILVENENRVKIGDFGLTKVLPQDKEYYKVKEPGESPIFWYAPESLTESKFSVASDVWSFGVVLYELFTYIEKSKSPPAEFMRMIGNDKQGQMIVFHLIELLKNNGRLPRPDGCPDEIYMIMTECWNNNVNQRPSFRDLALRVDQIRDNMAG
Chain of pseudo-kinase domain (JH2, amino-acids 536-812) of human V617F mutant JAK2 (O60674 536-812 V617F/W659A/W777A/F794H): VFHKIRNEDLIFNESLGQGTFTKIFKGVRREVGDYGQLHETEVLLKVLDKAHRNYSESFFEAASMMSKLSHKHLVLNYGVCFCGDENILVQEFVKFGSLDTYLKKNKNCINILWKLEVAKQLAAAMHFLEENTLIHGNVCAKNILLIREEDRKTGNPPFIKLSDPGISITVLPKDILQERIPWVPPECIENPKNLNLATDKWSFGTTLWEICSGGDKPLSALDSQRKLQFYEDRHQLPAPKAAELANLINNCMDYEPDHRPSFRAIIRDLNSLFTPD
Chain of pseudo-kinase domain (JH2, amino-acids 536-812) of human Wild Type JAK2 (O60674 536-812 W659A/W777A/F794H): as the sequence (O60674 536-812 V617F/W659A/W777A/F794H) above, with F82V counted along it
Chain of catalytic domain (JH1, amino acids 808-1132) of human JAK2 (O60674 808-1132): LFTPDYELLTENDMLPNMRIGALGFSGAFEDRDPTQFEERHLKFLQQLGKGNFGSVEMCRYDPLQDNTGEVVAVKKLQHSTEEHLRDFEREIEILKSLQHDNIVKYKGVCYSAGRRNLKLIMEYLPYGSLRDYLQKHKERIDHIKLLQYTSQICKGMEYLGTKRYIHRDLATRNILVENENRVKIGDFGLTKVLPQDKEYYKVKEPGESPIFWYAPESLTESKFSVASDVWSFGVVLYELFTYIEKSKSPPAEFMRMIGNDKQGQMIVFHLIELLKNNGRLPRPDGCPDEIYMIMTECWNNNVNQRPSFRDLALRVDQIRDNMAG

Take `CN1C(=O)NCc2c1cnc1[nH]c(-c3ccc(CN4CCC(S(C)(=O)=O)CC4)cc3)cc21` [Example 1, 4-Methyl-8-(4-((4-(methylsulfonyl)piperidin-1-yl)methyl)phenyl)-1,2,4,7-tetrahydro-3H-pyrrolo[3′,2′:5,6]pyrido[3,4-d]pyrimidin-3-one]: the IC50 in test [1] was at most 100 nM; in test [2], 100 to 500 nM; in test [3], 500 to 1000 nM; in test [4], at most 100 nM.

Turning to `CC(=O)N1CCN(c2ccc(-c3c(-c4ccc(CN5CCC(S(C)(=O)=O)CC5)cc4)[nH]c4ncc5c(c34)CN(C(C)(C)C)C(=O)N5C)cc2)CC1` [Example 18, 9-(4-(4-Acetylpiperazin-1-yl)phenyl)-2-(tert-butyl)-4-methyl-8-(4-((4-(methylsulfonyl)piperidin-1-yl)methyl)phenyl)-1,2,4,7-tetrahydro-3H-pyrrolo[3′,2′:5,6]pyrido[3,4-d]pyrimidin-3-one, trifluoroacetic acid salt], the IC50 in test [1], in test [2], in test [3] and in test [4] was at most 100 nM in each case.

For the molecule `CS(=O)(=O)C1CCN(Cc2ccc(-c3cc4c5c(cnc4[nH]3)NC(=O)N(C3CCCCC3)C5)cc2)CC1` [Example 5, 2-Cyclohexyl-8-(4-((4-(methylsulfonyl)piperidin-1-yl)methyl)phenyl)-1,2,4,7-tetrahydro-3H-pyrrolo[3′,2′:5,6]pyrido[3,4-d]pyrimidin-3-one], the IC50 was at most 100 nM in test [1], 100 to 500 nM in test [2], 500 to 1000 nM in test [3] and at most 100 nM in test [4].
